Data set [1] concerns PolyRes strain of Haemonchus contortus (resistant against levamisole, mebendazole, ivermectin and closantel). In words: Efficacy study of anthelmintics in in vivo H. contortus/jirds model. The conditions noted are these: jirds, oral; for Med. W.b. (median worm burden): treated day 11, necropsy day 14; for % Efficacy: reduction of mean worm count vs control group; for anthelmintic efficacy compared with art known compounds (A) and (B): multi-resistant strain of Haemonchus contortus, comparison in words. Details: species or system Haemonchus contortus in jirds (Meriones unguiculatus). The procedure:
The anthelmintic efficacy of the compounds of the present invention was evaluated in an in vivo model using unmedicated jirds (Meriones unguiculatus), inoculated three times with approximately 300 exsheated infective larvae of Haemonchus contortus (multiresistant strain), treated orally with a test compound 11 days after their first infection with H. contortus larvae, and necropsied on day 14 to count the number of recovered H. contortus worms. The anthelmintic efficacy of the art known compounds (A) and (B) was also evaluated using the same model.
Female CRW jirds aged between 28 and 35 days and weighing 30-35 g (Charles River, Sulzfeld, Germany) were used. Three jirds each were assigned randomly upon arrival to translucent polysulfone individually ventilated cages (48×37.5×21 cm) containing wood shavings. Commercial rodent chow and water were given ad libitum. Following a four-day acclimation period, the jirds were artificially infected.
A PolyRes strain of Haemonchus contortus (resistant against levamisole, mebendazole, ivermectin and closantel) was used. This strain has been maintained in artificially infected male donor lambs. Individual feces containing Haemonchus eggs were collected in fecal bags. The fecal pellets were broken, mixed with charcoal, moistened and put in an incubator for embryonation at 28° C. and 95% relative humidity. Seven days later this mixture was placed in Baermann funnels and third stage ensheathed larvae were collected after 12 hours. These larvae were rinsed with water for cleaning and disinfected with a 2% formalin solution. Such larvae can be used immediately for artificial infection or can be stored in the fridge at about 8° C. for a maximum duration of 6 months. Infective larvae (<6 months old) were exsheathed by rinsing with a 3.3 vol % commercial sodium hypochlorite solution during 10 minutes, filtered through a Buchner funnel, rinsed with water, concentrated in a Baermann funnel, and collected after 2 hours. Exsheathed larvae prepared in this manner can be used for subsequent infection of jirds or laid in a supply for extended periods by cooling in the gas over liquid nitrogen during 1 hour and storing in liquid nitrogen at −196° C.
All jirds were inoculated orally with approximately 300 exsheathed infective larvae of H. contortus per dose on three consecutive days. Inoculations were administered using a blunted 18 G dosing needle fitted to a 1 ml syringe.
Eleven days after their first infection jirds were treated with test compounds, suspended or dissolved in 0.4 ml DMSO, and the dose to be tested was administered in a volume of 0.1 ml/50 g bodyweight via a blunted 18 G dosing needle fitted to a 1 ml syringe. Control animals, included in each experiment, remained untreated. Levamisole hydrochloride, mebendazole, ivermectin and closantel were used in different dosage titration experiments to validate the model.
All jirds were starved 20 hours before necropsy and killed on day 14 past first infection by CO2 inhalation. For worm recovery their stomachs were removed, opened longitudinally, and incubated in a beaker with 20 ml digestion fluid (10 g pepsin+30 ml concentrated hydrochloric acid) at 37° C. for 3 hours. Following digestion, the stomach content was passed through a tea-strainer, the passage fluid was catched in a sieve (32 μm) and the worms were recovered with tap water. The beakers were stored in the fridge for subsequent counting.
The content of each beaker was mixed, poured over in a 6-well plate in 6 aliquots, and the worms were counted under an inverted microscope.

This note sets out measurements from US20080287511A1, “Anthelmintic Imidazol-Thiazole Derivates” (priority 2005, published 2008).

For orientation: melting point means the temperature, or range, at which the solid turns liquid.

As to `O=C(Nc1cccc([C@H]2CN3CCSC3=N2)c1)[C@H]1CCCO1` [Co. No. 1, (2R)-tetrahydro-furan-2-carboxylic acid (6S)-[3-(2,3,5,6-tetrahydro-imidazo[2,1-b]thiazol-6-yl)-phenyl]-amide], the melting point was 42 to 57 °C. Further, in data set [1] (dose 2.5 mpk), the “Med. W.b. (median worm burden)” value was found to be 36.0 and the “% Efficacy” value is 65.9%. For the same molecule, in data set [1] (dose 5 mpk), the “Med. W.b. (median worm burden)” value came to 6.0 and the “% Efficacy” value is 79.3%. Moreover, in data set [1] (dose 10 mpk), the “Med. W.b. (median worm burden)” value worked out at 0.0 and the “% Efficacy” value was 100.0%. Besides, the “anthelmintic efficacy compared with art known compounds (A) and (B)” value in data set [1] was “better demonstrated anthelmintic efficacy than the art known compounds (A) and (B)”.

As to `O=C(Nc1cccc([C@H]2CN3CCSC3=N2)c1)C1CCCO1` (stereo partly drawn) [Co. No. 4], in data set [1] (dose 5 mpk), the “Med. W.b. (median worm burden)” value is listed as 5.0 and the “% Efficacy” value turned out to be 68.8%. Moreover, in data set [1] (dose 10 mpk), the “Med. W.b. (median worm burden)” value stood at 3.0 and the “% Efficacy” value is recorded as 85.0%. Further, the “anthelmintic efficacy compared with art known compounds (A) and (B)” value in data set [1] is “better demonstrated anthelmintic efficacy than the art known compounds (A) and (B)”.

`O=C(Nc1cccc([C@H]2CN3CCSC3=N2)c1)c1ccco1` [Co. No. A, furan-2-carboxylic acid [3-(2,3,5,6-tetrahydro-imidazo[2,1-b]thiazol-6-yl)-phenyl]-amide, reference compound]: in data set [1] (dose 5 mpk), the “Med. W.b. (median worm burden)” value turned out to be 11.0 and the “% Efficacy” value was 35.3%. In data set [1] (dose 10 mpk), the “Med. W.b. (median worm burden)” value came out at 7.0 and the “% Efficacy” value was 65.0%.

Take `c1cc(NCC2CCCO2)cc([C@H]2CN3CCSC3=N2)c1` (stereo partly drawn) [Co. No. B, (tetrahydrofuran-2-ylmethyl)-[3-(2,3,5,6-tetrahydro-imidazo[2,1-b]thiazol-6-yl)-phenyl]-amine, reference compound]: in data set [1] (dose 5 mpk), the “Med. W.b. (median worm burden)” value amounted to 10.0 and the “% Efficacy” value came to 55.6%. For the same molecule, in data set [1] (dose 10 mpk), the “Med. W.b. (median worm burden)” value is reported as 14.0 and the “% Efficacy” value is on record as 60.6%.
